Measured values from ChEMBL document CHEMBL3885861, “Open TG-GATES”.

Organism: Rattus norvegicus
Assay: Open TG-GATES - Regimen: Daily Repeat
Format: toxicity, organism-based, Sprague-Dawley
Parameters: regimen Daily Repeat, gender Male, age 6 weeks
Details: in vivo, po, 0 mg/kg, route gavage, dose level Control; for APTT / Bas / Eos / Fbg / Hb / Ht / Lym / MCH / MCHC / MCV / Mono / Neu / PT / Plat / RBC / Ret / WBC: tissue Blood; for KIDNEY_L / KIDNEY_R / KIDNEY_TOTAL: tissue Kidney; for LIVER: tissue Liver; for ALP / ALT / AST / BUN / CRE / Ca / Cl / DBIL / GLC / IP / K / LDH / Na / PL / RALB / TBIL / TC / TG / TP / gamma-GTP: tissue Plasma

COC(=O)C1=C(C)NC(C)=C(C(=O)OC)C1c1ccccc1[N+](=O)[O-] [NIFEDIPINE]
TERMINAL_BW (72 h, time 3 day): 227.8 g | APTT (72 h, time 3 day): 16.7 s | Bas (72 h, time 3 day): 0.4% | Eos (72 h, time 3 day): 1% | Fbg (72 h, time 3 day): 313.6 mg/dL | Hb (72 h, time 3 day): 13.4 g/dL | Ht (72 h, time 3 day): 41.3% | Lym (72 h, time 3 day): 80.2% | MCH (72 h, time 3 day): 20.8 pg | MCHC (72 h, time 3 day): 32.5% | MCV (72 h, time 3 day): 64.2 fL | Mono (72 h, time 3 day): 3.2% | Neu (72 h, time 3 day): 14% | PT (72 h, time 3 day): 14.5 s | Plat (72 h, time 3 day): 122.9 x10_4/uL | RBC (72 h, time 3 day): 643.8 x10_4/ul | Ret (72 h, time 3 day): 7.5% | WBC (72 h, time 3 day): 94.6 x10_2/uL | KIDNEY_L (72 h, time 3 day): 1 g | KIDNEY_R (72 h, time 3 day): 1 g | KIDNEY_TOTAL (72 h, time 3 day): 2 g | LIVER (72 h, time 3 day): 10.4 g | ALP (72 h, time 3 day): 1654.8 IU/L | ALT (72 h, time 3 day): 47.6 IU/L | AST (72 h, time 3 day): 71.4 IU/L | BUN (72 h, time 3 day): 14 mg/dL | CRE (72 h, time 3 day): 0.2 mg/dL | Ca (72 h, time 3 day): 11.1 mg/dL | Cl (72 h, time 3 day): 106 meq/L | DBIL (72 h, time 3 day): 0.014 mg/dL | GLC (72 h, time 3 day): 179.2 mg/dL | IP (72 h, time 3 day): 7.7 mg/dL | K (72 h, time 3 day): 4.2 meq/L | LDH (72 h, time 3 day): 85.4 IU/L | Na (72 h, time 3 day): 144.8 meq/L | PL (72 h, time 3 day): 162 mg/dL | RALB (72 h, time 3 day): 2.7 g/dL | TBIL (72 h, time 3 day): 0.028 mg/dL | TC (72 h, time 3 day): 83.8 mg/dL | TG (72 h, time 3 day): 109.2 mg/dL | TP (72 h, time 3 day): 5.8 g/dL | gamma-GTP (72 h, time 3 day): 1 IU/L | TERMINAL_BW ([…], time 7 day): 262.8 g | TERMINAL_BW ([…], time 14 day): 320 g | TERMINAL_BW ([…], time 28 day): 416 g | APTT ([…], time 7 day): 16.1 s | Bas ([…], time 7 day): 0.4% | Eos ([…], time 7 day): 1.4% | Fbg ([…], time 7 day): 286.6 mg/dL | Hb ([…], time 7 day): 13.7 g/dL | Ht ([…], time 7 day): 42% | Lym ([…], time 7 day): 75.8% | MCH ([…], time 7 day): 21 pg | MCHC ([…], time 7 day): 32.7% | MCV ([…], time 7 day): 64.1 fL | Mono ([…], time 7 day): 3% | Neu ([…], time 7 day): 18.2% | PT ([…], time 7 day): 14.2 s | Plat ([…], time 7 day): 133.6 x10_4/uL | RBC ([…], time 7 day): 656.4 x10_4/ul | Ret ([…], time 7 day): 5.7% | WBC ([…], time 7 day): 100.3 x10_2/uL | APTT ([…], time 14 day): 18.1 s | Bas ([…], time 14 day): 0% | Eos ([…], time 14 day): 1% | Fbg ([…], time 14 day): 320.8 mg/dL | Hb ([…], time 14 day): 14.8 g/dL | Ht ([…], time 14 day): 44.1% | Lym ([…], time 14 day): 79.2% | MCH ([…], time 14 day): 20.6 pg | MCHC ([…], time 14 day): 33.5% | MCV ([…], time 14 day): 61.3 fL | Mono ([…], time 14 day): 3% | Neu ([…], time 14 day): 15.6% | PT ([…], time 14 day): 14.2 s | Plat ([…], time 14 day): 117.8 x10_4/uL | RBC ([…], time 14 day): 720.2 x10_4/ul | Ret ([…], time 14 day): 4.2% | WBC ([…], time 14 day): 101 x10_2/uL | APTT ([…], time 28 day): 16.7 s | Bas ([…], time 28 day): 0.4% | Eos ([…], time 28 day): 1% | Fbg ([…], time 28 day): 313.6 mg/dL | Hb ([…], time 28 day): 13.4 g/dL | Ht ([…], time 28 day): 41.3% | Lym ([…], time 28 day): 80.2% | MCH ([…], time 28 day): 20.8 pg | MCHC ([…], time 28 day): 32.5% | MCV ([…], time 28 day): 64.2 fL | Mono ([…], time 28 day): 3.2% | Neu ([…], time 28 day): 14% | PT ([…], time 28 day): 14.5 s | Plat ([…], time 28 day): 122.9 x10_4/uL | RBC ([…], time 28 day): 643.8 x10_4/ul | Ret ([…], time 28 day): 7.5% | WBC ([…], time 28 day): 94.6 x10_2/uL | KIDNEY_L ([…], time 7 day): 1 g | KIDNEY_R ([…], time 7 day): 1 g | KIDNEY_TOTAL ([…], time 7 day): 2.1 g | KIDNEY_L ([…], time 14 day): 1.2 g | KIDNEY_R ([…], time 14 day): 1.2 g | KIDNEY_TOTAL ([…], time 14 day): 2.5 g | KIDNEY_L ([…], time 28 day): 1.4 g | KIDNEY_R ([…], time 28 day): 1.4 g | KIDNEY_TOTAL ([…], time 28 day): 2.7 g | LIVER ([…], time 7 day): 12.1 g | LIVER ([…], time 14 day): 13.8 g | LIVER ([…], time 28 day): 17.4 g | ALP ([…], time 7 day): 1580.4 IU/L | ALT ([…], time 7 day): 42.6 IU/L | AST ([…], time 7 day): 68.6 IU/L | BUN ([…], time 7 day): 15.4 mg/dL | CRE ([…], time 7 day): 0.2 mg/dL | Ca ([…], time 7 day): 11 mg/dL | Cl ([…], time 7 day): 106.4 meq/L | DBIL ([…], time 7 day): 0.014 mg/dL | GLC ([…], time 7 day): 183.6 mg/dL | IP ([…], time 7 day): 7.4 mg/dL | K ([…], time 7 day): 4 meq/L | LDH ([…], time 7 day): 98.2 IU/L | Na ([…], time 7 day): 145.2 meq/L | PL ([…], time 7 day): 159.2 mg/dL | RALB ([…], time 7 day): 2.7 g/dL | TBIL ([…], time 7 day): 0.026 mg/dL | TC ([…], time 7 day): 82.4 mg/dL | TG ([…], time 7 day): 111.8 mg/dL | TP ([…], time 7 day): 5.9 g/dL | gamma-GTP ([…], time 7 day): 1 IU/L | ALP ([…], time 14 day): 1854.8 IU/L | ALT ([…], time 14 day): 41.8 IU/L | AST ([…], time 14 day): 65 IU/L | BUN ([…], time 14 day): 16 mg/dL | CRE ([…], time 14 day): 0.2 mg/dL | Cl ([…], time 14 day): 105.6 meq/L | DBIL ([…], time 14 day): 0.012 mg/dL | GLC ([…], time 14 day): 184 mg/dL | IP ([…], time 14 day): 7.3 mg/dL | K ([…], time 14 day): 4 meq/L | LDH ([…], time 14 day): 57.8 IU/L | Na ([…], time 14 day): 144.2 meq/L | PL ([…], time 14 day): 158.8 mg/dL | RALB ([…], time 14 day): 2.8 g/dL | TBIL ([…], time 14 day): 0.024 mg/dL | TC ([…], time 14 day): 75.4 mg/dL | TG ([…], time 14 day): 150.8 mg/dL | TP ([…], time 14 day): 6 g/dL | gamma-GTP ([…], time 14 day): 1 IU/L | ALP ([…], time 28 day): 1068.6 IU/L | ALT ([…], time 28 day): 36.2 IU/L | AST ([…], time 28 day): 63 IU/L | BUN ([…], time 28 day): 17.4 mg/dL | CRE ([…], time 28 day): 0.3 mg/dL | Ca ([…], time 28 day): 10.7 mg/dL | Cl ([…], time 28 day): 104.4 meq/L | DBIL ([…], time 28 day): 0.01 mg/dL | GLC ([…], time 28 day): 192.8 mg/dL | IP ([…], time 28 day): 6.1 mg/dL | K ([…], time 28 day): 3.9 meq/L | LDH ([…], time 28 day): 66 IU/L | Na ([…], time 28 day): 143.8 meq/L | PL ([…], time 28 day): 161.6 mg/dL | RALB ([…], time 28 day): 2.8 g/dL | TBIL ([…], time 28 day): 0.026 mg/dL | TC ([…], time 28 day): 75 mg/dL | TG ([…], time 28 day): 175.2 mg/dL | TP ([…], time 28 day): 6.3 g/dL
